Data set [1] can be described thus: Stability of the compound assessed as intramolecular cyclization/decomposition measured over 12 months. In kind it is physicochemical. Conditions: 8766 h.
The subject of data set [2] is Mus musculus. As to the kind of experiment: Antinociceptive activity in ip dosed capsaicin-induced SKH1-hrhr mouse assessed change in reward licking events measured 30 mins post injection. In kind it is functional, organism-based.
Data set [3] concerns Mus musculus. As to the kind of experiment: Toxicity in ip dosed capasaicin-induced SKH1-hrhr mouse assessed as mortality measured up to 3 hrs. The data set is classed as organism-based. The following applies: in vivo.
Data set [4] has as its system Mus musculus. Put plainly: Toxicity in ip dosed SKH1-hrhr mouse assessed as change in reward licking events measured up to 3 hrs. The data set is classed as organism-based. Conditions: in vivo.
Data set [5] deals with Mus musculus. Put plainly: Toxicity in ip dosed SKH1-hrhr mouse assessed as mortality measured up to 3 hrs. In kind it is organism-based. The following applies: in vivo.
The nature of data set [6]: Toxicity in mouse. The data set is classed as organism-based. The following applies: in vivo.
A short description of data set [7]: Oral bioavailability in cynomolgus monkey at 39 mg/kg. The following applies: in vivo. The data set is classed as ADME, organism-based, Macaca fascicularis.
Data set [8] can be described thus: Stability of the compound in HCl-MeOH/HCl-1,4-dioxane/TFA-DCM assessed as release of gabapentin, S-nucleophile, 2-aza-spiro[4,5]decan-3-one. In kind it is physicochemical. Conditions: buffer.
A short description of data set [9]: Stability of the compound in HCl-MeOH/HCl-1,4-dioxane/TFA-DCM assessed as release of gabapentin, O-nucleophile, 2-aza-spiro[4,5]decan-3-one. The data set is classed as physicochemical. The following applies: buffer.
Data set [10] is described as follows: Stability of the compound assessed as cyclization into tert-butyl 3-oxo-2-azaspiro[4.5]decane-2-carboxylate at room temperature measured over 12 months. The data set is classed as physicochemical. Conditions: 8766 h.
For another data set, the system named is Cynomolgus monkey. As to the kind of experiment: Oral bioavailability in cynomolgus monkey assessed as gabapentin at 36 mg/kg. In kind it is ADME, organism-based, Macaca fascicularis. Conditions: in vivo.

These results are taken from ChEMBL document CHEMBL3112545, “Gabapentin hybrid peptides and bioconjugates” (Bioorg Med Chem, 2014).

Each structure is given as a SMILES string. Activity calls are given as the source filed them. No cut-off for these calls is given here.

As to `CC(C)[C@H](NC(=O)OCc1ccccc1)C(=O)NCC1(CC(=O)O)CCCCC1`, the Stability result in data set [1] is reported as “Stable”. On to `C[C@H](N)C(=O)NCC1(CC(=O)O)CCCCC1`, for which the outcome with Mus musculus [2] was Active. Also, the Activity result in the data set on Mus musculus [3], with Mus musculus [4] and with Mus musculus [5] was “Non-toxic” each time. Moreover, the Stability entry in data set [1] was “Stable”. On to `NCC1(CC(=O)O)CCCCC1` [GABAPENTIN], for which the median lethal dose (LD50) in data set [6] was more than 8000 mg/kg. In [7], this molecule returned a bioavailability of 25%. The Activity entry with Mus musculus [4] and in the data set on Mus musculus [5] was “Non-toxic” throughout. In the case of `COC(=O)[C@H](CSC(=O)CC1(CNC(=O)OC(C)(C)C)CCCCC1)NC(=O)[C@H](Cc1ccccc1)NC(=O)OCc1ccccc1`, in [8], the Stability result is “Unstable”. For the molecule `CC(C)[C@H]1CC[C@H](C)C[C@@H]1OC(=O)CC1(CNC(=O)OC(C)(C)C)CCCCC1`, the Stability entry in [9] and in data set [10] was “Unstable” each time.

Regarding `CC(C)(C)OC(=O)NCC1(CC(=O)Sc2ccccc2)CCCCC1`, the Stability result in [8] is listed as “Unstable”.

Turning to `C[C@H](NC(=O)CN)C(=O)NCCC(=O)NCC1(CC(=O)O)CCCCC1`, in [1], the Stability result is “Stable”. Take `C[C@H](NC(=O)OC(C)(C)C)C(=O)N[C@@H](Cc1ccccc1)C(=O)NCC1(CC(=O)O)CCCCC1`: in data set [1], the Stability result was “Stable”. On to `Cl.NCC1(CC(=O)NCc2ccccc2)CCCCC1`, for which the Activity result with Mus musculus [4] and with Mus musculus [5] was “Non-toxic” each time. Take `O=C1CC2(CCCCC2)CN1`: the LD50 in data set [6] is 300 mg/kg. As for `C[C@H](NC(=O)OCc1ccccc1)C(=O)NCC1(CC(=O)O)CCCCC1`, in data set [1], the Stability result is “Stable”. Take `C[C@H](NC(=O)CNC(=O)OCc1ccccc1)C(=O)NCCC(=O)NCC1(CC(=O)O)CCCCC1`: the Stability result in data set [1] is “Stable”.

For the molecule `CC(C)CCC[C@@H](C)[C@H]1CC[C@H]2[C@@H]3CC=C4C[C@@H](OC(=O)CC5(CNC(=O)OC(C)(C)C)CCCCC5)CC[C@]4(C)[C@H]3CC[C@]12C`, in [9], the Stability entry is on record as “Unstable”. Turning to `CC(OC(=O)NCC1(CC(=O)O)CCCCC1)OC(=O)C(C)C` (stereo not given) [GABAPENTIN ENACARBIL], in the data set with Cynomolgus monkey, the F came to 84%. Turning to `CC(C)[C@H](N)C(=O)NCC1(CC(=O)O)CCCCC1`, the Stability result in [1] is “Stable”. `CC(N)C(=O)NC(Cc1ccccc1)C(=O)NCC1(CC(=O)O)CCCCC1.Cl` (racemic): the Stability result in data set [1] was “Stable”.

As usually defined, the LD50 is the dose at which mortality reaches 50%. By bioavailability is commonly meant the share of a dose that reaches the circulation, judged against a reference dose that is usually intravenous.
